Like-named read-outs stand apart in the source and are kept apart here.
Assays:
[1] = target: human full-length autophosphorylated recombinant HPK1 (Homo sapiens (Human), UniProt Q92918); experiment: HPK1 biochemical enzyme assay (chelation-enhanced fluorescence, CHEF); conditions: 0.5 nM HPK1, 45 μM ATP, Morrison fit
Method: HPK1 Biochemical Enzyme Assay
HPK1 enzyme inhibition was measured by using the fluorescence-based chelation-enhanced fluorescence (CHEF) method (1), and by using a proprietary fluorescent peptide substrate, in which a cysteine residue is alkylated with a sulfonamido-oxine-based derivative to afford an amino acid termed C-Sox (CSx). […] Initial reaction velocities were determined by following the peptide fluorescence (λex=360 nm, λem=500 nm) at 30° C. for 15 min in a Tecan M1000 plate reader (Tecan Group Ltd., Mannedorf, Zurich, Switzerland).
Production of Autophosphorylated Full-Length Recombinant HPK1
The DNA sequence encoding full-length human HPK1 (Genbank NM_001042600.2) was synthesized at GenScript and contained a limited number of silent base changes to eliminate certain restriction endonuclease enzyme recognition sites, and fused to a DNA sequence encoding a Tobacco Etch Virus (TEV)-cleavable N-terminal polyhistidine purification tag. A recombinant baculovirus was prepared by using the Bac-to-Bac method (InVitrogen) and was used to infect 9 L of Sf21 insect cells. All purification steps were carried out at 4° C. Cells containing recombinant HPK1 were lysed in 50 mM HEPES-NaOH, pH 7.5, 250 mM NaCl, 1 mM tris(2-carboxyethyl)phosphine (TCEP), 10 μM leupeptin (Sigma), 10 μM E-64 (Sigma), and one ‘EDTA-free’ protease inhibitor tablet (Roche) per 75 mL buffer, centrifuged at 15,000×g for 1 h and the supernatant passed over 5 mL of ProBond IMAC resin (InVitrogen). After washing, HPK1 was eluted with 12.5 mL of 50 mM HEPES-NaOH, pH 7.5, 400 mM NaCl, 250 mM imidazole-HCl pH 7.5, 1 mM TCEP, 2 μM leupeptin, and 2 μM E-64. The eluted HPK1 was dialyzed overnight against 0.8 L of 50 mM HEPES-NaOH, pH 7.5, 400 mM NaCl, 20 mM imidazole-HCl pH 7.5, 1 mM TCEP, 2 μM leupeptin, 2 μM E-64, 2 mM ATP-NaOH pH 7.3, 5 mM MgCl2 and 1 mg TEV (this step simultaneously allows for reduction of the imidazole concentration in preparation for the subsequent reverse IMAC chromatography step, removal of the polyhistidine purification tag by TEV protease, and autophosphorylation of HPK1 in the presence of MgATP). The de-tagged and autophosphorylated HPK1 was adjusted to 40 mM imidazole-HCl, pH 7.5, and passed through a 10 mL column of ProBond resin similarly equilibrated. […] The peak fractions containing HPK1 were pooled and concentrated to approximately 2.5 mL by using a centrifugal concentrator (Millipore). The concentrated HPK1 was adjusted to 20% (v/v) glycerol by the addition of 50% (v/v) glycerol, resulting in a final formulation of 25 mM HEPES-NaOH pH 7.5, 250 mM NaCl, 0.25 mM TCEP and 20% (v/v) glycerol. […] Aliquots of the enzyme were flash frozen in liquid nitrogen and stored at −80° C. The final product contains a glycine-serine extension at the N-terminus of the full-length protein, as a result of the cloning strategy.

[2] = test system: Phospho-SLP-76 (Ser376) in Jurkat cells; experiment: Phospho-SLP-76 (Ser376) HTRF assay in anti-CD3 stimulated Jurkat cells; format: cell-based; conditions: 30 min pre-treatment, anti-CD3 stimulation 15 min, read-out: pSLP76 IC50
Method: Cell Based Assays Phospho-SLP-76 (Ser376) Homogeneous Time Resolved Fluorescence (HTRF) Assay
Jurkat cells were seeded at 90,000 cells/well in 90 uL of RPMI1640 growth medium containing 10% FBS and incubated at 37° C. with 5% CO2 overnight. The following day, compounds were serially diluted from a 10 mM top dose for an 11-point 3-fold dilution curve in DMSO. Compounds were intermediately diluted 1:100 into growth media prior to diluting 1:10 on cells for final concentration 10 μM to 0.1 nM in 0.1% DMSO. After 30 min pre-treatment with compounds, the cells were stimulated using 200 μg/mL of F(ab)2 complexed anti-CD3 (clone UCTH1) for 15 min at 37° C. with 5% CO2. Stimulation was stopped with ice cold PBS and cells were harvested by centrifugation before lysis in Cisbio lysis buffer (Cisbio, Bedford, Mass.). Lysates were transferred to white, low-volume plates containing anti-phospho-SLP-76-Cryptate plus anti-phospho-SLP-76-d2 HTRF antibodies and incubated overnight at room temperature protected from light according to the manufacturer's protocol (Cisbio, Bedford, Mass.). HTRF was measured on a Perkin Elmer Envision and IC50 values were calculated by concentration-response curve fitting utilizing four-parameter nonlinear regression analyses.

Chain of human full-length autophosphorylated recombinant HPK1 (Q92918 other isoform, or with tags, fused parts or gaps): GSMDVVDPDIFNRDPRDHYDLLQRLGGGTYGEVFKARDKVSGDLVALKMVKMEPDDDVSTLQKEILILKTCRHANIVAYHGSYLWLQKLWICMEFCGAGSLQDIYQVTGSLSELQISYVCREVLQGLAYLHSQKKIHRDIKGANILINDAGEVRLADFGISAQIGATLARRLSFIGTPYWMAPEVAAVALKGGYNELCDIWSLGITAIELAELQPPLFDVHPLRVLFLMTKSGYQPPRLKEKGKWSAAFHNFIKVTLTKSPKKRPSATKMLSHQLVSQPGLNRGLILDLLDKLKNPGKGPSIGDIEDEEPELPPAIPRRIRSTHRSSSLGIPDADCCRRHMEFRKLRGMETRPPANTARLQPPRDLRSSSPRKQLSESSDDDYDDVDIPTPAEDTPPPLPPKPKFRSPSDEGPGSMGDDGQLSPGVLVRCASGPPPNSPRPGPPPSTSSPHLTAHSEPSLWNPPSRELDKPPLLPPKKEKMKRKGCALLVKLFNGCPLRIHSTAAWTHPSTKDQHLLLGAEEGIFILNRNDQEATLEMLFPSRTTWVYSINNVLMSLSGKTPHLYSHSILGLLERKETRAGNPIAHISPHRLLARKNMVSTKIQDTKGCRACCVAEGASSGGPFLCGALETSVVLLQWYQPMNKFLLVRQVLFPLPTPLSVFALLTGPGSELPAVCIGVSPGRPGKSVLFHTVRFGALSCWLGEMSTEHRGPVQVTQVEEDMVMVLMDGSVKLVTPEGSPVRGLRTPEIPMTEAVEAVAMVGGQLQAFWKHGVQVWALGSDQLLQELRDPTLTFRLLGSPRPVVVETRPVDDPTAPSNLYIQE

SMILES	Ki [1]	IC50 ([2]; Homo sapiens, Jurkat)	IC50 [2]
CC(C)N(C)c1cc2c(c([C@@H](C)N)n1)CN(c1cccc(-c3nnc4n3[C@@H](C)CC4)n1)C2=O [Example 21, 4-[(1R)-1-aminoethyl]-2-{6-[(5S)-5-methyl-6,7-dihydro-5H-pyrrolo[2,1-c][1,2,4]triazol-3-yl]pyridin-2-yl}-6-[methyl(propan-2-yl)amino]-2,3-dihydro-1H-pyrrolo[3,4-c]pyridin-1-one]		46 nM	
COC[C@@H](N)c1nc(C2(C)CC2)cc2c1CN(c1cccc(-c3nnc4n3[C@@H](C)CC4)n1)C2=O [Example 6b, 4-[(1)-1-amino-2-methoxyethyl]-6-(1-methylcyclopropyl)-2-{6-[(5S)-5-methyl-6,7-dihydro-5H-pyrrolo[2,1-c][1,2,4]triazol-3-yl]pyridin-2-yl}-2,3-dihydro-1H-pyrrolo[3,4-c]pyridin-1-one]			641 nM
CC[C@@H]1CCc2nnc(-c3cccc(N4Cc5c(cc(N6CCC[C@H]6C)nc5[C@@H](C)N)C4=O)n3)n21 [Example 7, 4-[(1R)-1-aminoethyl]-2-{6-[(5R)-5-ethyl-6,7-dihydro-5H-pyrrolo[2,1-c][1,2,4]triazol-3-yl]pyridin-2-yl}-6-[(2R)-2-methylpyrroli-din-1-yl]-2,3-dihydro-1H-pyrrolo[3,4-c]pyridin-1-one]	2.8 nM		
CC[C@@H](N)c1nc(N(C)C(C)C)cc2c1CN(c1cccc(-c3nnc4n3[C@@H](C)CC4)n1)C2=O [Example 5]		31 nM	
COC[C@@H](N)c1nc(C2(C)CC2)cc2c1CN(c1cccc(-c3nnc4n3[C@@H](C)CC4)n1)C2=O [Example 6a, 4-[(1)-1-amino-2-methoxyethyl]-6-(1-methylcyclopropyl)-2-{6-[(5S)-5-methyl-6,7-dihydro-5H-pyrrolo[2,1-c][1,2,4]triazol-3-yl]pyridin-2-yl}-2,3-dihydro-1H-pyrrolo[3,4-c]pyridin-1-one]			69 nM
C[C@H](N)c1nc(C2(C)CC2)cc2c1CN(c1cccc(-c3nncn3C3CCC3)n1)C2=O (stereo in doubt) [Example 104, 4-[(1ξ)-1-aminoethyl]-2-[6-(4-cyclobutyl-4H-1,2,4-triazol-3-yl)pyridin-2-yl]-6-(1-methylcyclo-propyl)-2,3-dihydro-1H-pyrrolo[3,4-c]pyridin-1-one]	2.36 nM		

Now from value to molecule:

Ki [1]	IC50 ([2]; Homo sapiens, Jurkat)	IC50 [2]	SMILES
1.03 nM	194 nM		CCN(C)c1cc2c(c([C@H](C)N)n1)CN(c1cccc(-c3nnc(C)n3CC)n1)C2=O (single isomer, unassigned) [Example 128, 4-[(1ξ)-1-aminoethyl]-6-[ethyl(methyl)amino]-2-[6-(4-ethyl-5-methyl-4H-1,2,4-triazol-3-yl)pyridin-2-yl]-2,3-dihydro-1H-pyrrolo[3,4-c]pyridin-1-one]
	332 nM		CCCn1cnnc1-c1cccc(N2Cc3c(cc(N(C)C)nc3[C@@H](C)N)C2=O)n1 [Example 138, 4-[(1R)-1-aminoethyl]-6-(dimethyl-amino)-2-[6-(4-propyl-4H-1,2,4-triazol-3-yl)pyridin-2-yl]-2,3-dihydro-1H-pyrrolo[3,4-c]pyridin-1-one]
	189 nM		CCCn1cnnc1-c1cccc(N2Cc3c(cc(N(C)C)nc3[C@H](C)N)C2=O)n1 [Example 137, 4-[(1S)-1-aminoethyl]-6-(dimethyl-amino)-2-[6-(4-propyl-4H-1,2,4-triazol-3-yl)pyridin-2-yl]-2,3-dihydro-1H-pyrrolo[3,4-c]pyridin-1-one]
0.44 nM			CC[C@H](N)c1nc(N2CCC[C@H]2C)cc2c1CN(c1cccc(-c3nncn3CC)n1)C2=O [Example 141, 4-[(1S)-1-aminopropyl]-2-[6-(4-ethyl-4H-1,2,4-triazol-3-yl)pyridin-2-yl]-6-[(2R)-2-methylpyrroli-din-1-yl]-2,3-dihydro-1H-pyrrolo[3,4-c]pyridin-1-one]
1.54 nM			CCCn1cnnc1-c1cccc(N2Cc3c(cc(N(C)C)nc3[C@H](N)CC)C2=O)n1 (stereo in doubt) [Example 142, 4-[(1ξ)-1-aminopropyl]-6-(dimethyl-amino)-2-[6-(4-propyl-4H-1,2,4-triazol-3-yl)pyridin-2-yl]-2,3-dihydro-1H-pyrrolo[3,4-c]pyridin-1-one]
